# Source: US20170042899A1, “Use of Tetrahydrobiopterine Derivatives in the Treatment and Nutrition of Patients With Amino Acid Metabolic Disorders” (BioMarin Pharmaceutical Inc., priority 2002, published 2017)
# Experiments:
# [1] = test system: persons with a deficiency in phenylalanine hydroxylase; assay: Combined phenylalanine and tetrahydrobiopterine exposure or stress test (phenylalanine concentration in blood); assay type: in vivo, human; conditions: for patients with a response to tetrahydrobiopterine: blood phenylalanine sank by at least 30% 15 hours after exposure
# From the text: In order to research the therapeutic effectiveness of tetrahydrobiopterine, one carries out a combined phenylalanine tetrahydrobiopterine stress test for diagnostic and analyzes the effect in vivo by means of determining the [^13C] phenylalanine oxidation rate and 38 persons with a deficiency in phenylalanine hydroxylase prior to and subsequent to the administration of tetrahydrobiopterine derivatives. The response to tetrahydrobiopterine was associated with certain genotypes, and we localized mutations on the basis of the structural models of the phenylalanine hydroxylase monomer and the therefrom derived protein misfolding. We obtained the written consent of the families of 38 children, which suffered from various subset forms of hyperphenylalaninamie. The classification occurred depending upon the plasma phenylalanine concentration prior to treatment: less than 600 μmol/l, mild hyperphenylalaninamie, n=10, age 15 days through 10 years; 600-1200 μmol/l, mild, n=21, age 8 days through 17 years; greater than 1200 μmol, classical phenylketonurea, n=7, age 1 day through 9 years. A defect in this tetrahydrobiopterine biosynthesis or in the recycling of the tetrahydrobiopterine was ruled out by an analysis of the pterine value in urine and the dihydropteridine-reductase activity in erythrocytes. We examined seven patients during the newborn period and 31 as they were already older. Afflicted siblings (n=5) were likewise included in the study, since it is known that non-genetic factors influence the phenylalanine homeostasis. The uptake of phenylalanine was accomplished in that the patients were allowed to take a meal with 100 mg phenylalanine per kilogram body weight. One hour after the end of the meal the patients took 20 mg tetrahydrobiopterine per kilogram (Schircks Laboratories, Jona, Switzerland). The phenylalanine concentration in blood was determined by an electro spray ionization tandem mass spectroscopy—prior to the uptake of phenylalanine and prior to and subsequent to (at 4, 8 and 15 hours) provocation or exposure to tetrahydrobiopterine. During the test phase the newborns were fed with mothers milk, while the older children received a standardized protein supply (10 mg phenylalanine per kg) between six and eight hours after the exposure to tetrahydrobiopterine. The patients were classified as reacting to tetrahydrobiopterine if the phenylalanine concentration in the blood 15 hours after the exposure to tetrahydrobiopterine sank by at least 30% in comparison to the value prior to the intake of tetrahydrobiopterine.
# [2] = test system: children with mild phenylketonurea; assay: Long time treatment with tetrahydrobiopterine replacing the phenylalanine poor diet; assay type: in vivo, human; conditions: five children
# Protocol: The families with five children aged from 4 to 14 years with mild phenylketonurea consented to a therapeutic test, in which the phenylalanine poor diet was replaced by an oral administration of tetrahydrobiopterine in daily doses between 7.1 and 10.7 mg/kg body weight. The treatment lasted 207±51.3 days (average±SD; length 166-263).
# Serum residence time = conditions: in vivo
# [3] = test system: persons with a deficiency in phenylalanine hydroxylase; assay: In vivo analysis of L-[13C]phenylalanine oxidation (13CO2 breath test); design: species or system human
# From the text: In order to research the therapeutic effectiveness of tetrahydrobiopterine, one carries out a combined phenylalanine tetrahydrobiopterine stress test for diagnostic and analyzes the effect in vivo by means of determining the [^13C] phenylalanine oxidation rate and 38 persons with a deficiency in phenylalanine hydroxylase prior to and subsequent to the administration of tetrahydrobiopterine derivatives. The response to tetrahydrobiopterine was associated with certain genotypes, and we localized mutations on the basis of the structural models of the phenylalanine hydroxylase monomer and the therefrom derived protein misfolding.
# The tests were carried out after a four hour fast in small children and an overnight fast in older children. Overall 6 mg L-[1^−13C] phenylalanine (Euriostop, Paris, France) per kilogram body weight were taken in orally. The tracer was dissolved in a 25% dextrose solution (2 mg per milliliter). Subsequently breath samples were taken over a period of 180 minutes and stored in air-free glass pipes until analysis by means of isotope mass spectroscopy (deltaS, Thermoquest, Bremen). The recapture of carbon-13 in the breath samples was calculated, as described by Treacy et al, wherein a total carbon dioxide of 300 mmol per hour×[…] of body surface was assumed. The ^13CO2-production was represented as a cumulative percentage rate of the calculated dose against time. The validity of the results in the newborn could have been influenced by the nutrition or the fact that the collection of the breath sample is more difficult with them than with older children. […] In cross section, less than one (older children) and less than two (newborns) of 27 sequential ^13CO2 measurements, which were obtained during the 180 minutes of an individual test, were not capable of interpretation.
# Patients with various clinical stages of illness achieved basile cumulative ^13CO2 recapture rates, which respectively reflected their individual rest phenylalanine oxidation capacity (classic phenylketonurea, average value 1.4%; mild phenylketonurea, 3.1%; mild hyperphenylalaninamie, 5.6%; the healthy comparison group 9.0%). […] The rise was more clearly pronounced in patients with a mild phenylketonurea than in patients with a mild hyperphenylalaninamie (FIG. 2A). […] This is associated therewith that with longer therapies, also in the cases of hyperphenylalaninamie derivative, improvement by tetrahydrobiopterine could be achieved.
# [4] = test system: patients with a lack of tetrahydrobiopterine; conditions: more than 350 patients with a lack of tetrahydrobiopterine treated with the co-factor; cited from earlier work
# [5] = a patient with classic phenylketonurea
serum residence time (Serum residence time),Structure (SMILES),phenylalanine concentration in the blood after exposure ([1]; 23 of the 27 patients reacting to tetrahydrobiopterine),patients in whom tetrahydrobiopterine significantly decreased the phenylalanine content in the blood and improved the phenylalanine oxidation ([1]; 27 of the 31 patients with mild hyperphenylalaninamie (n=10) or mild phenylketonurea (n=21)) [%],"phenylalanine concentration in blood, change [1, 5]",patients satisfying the criteria of a strong response to tetrahydrobiopterine ([1]; classical phenylketonurea (n=7)),patients with a response to tetrahydrobiopterine ([1]; mild hyperphenylalaninamie),patients with a response to tetrahydrobiopterine ([1]; mild phenylketonurea),phenylalanine concentration in the blood after exposure ([1]; patients which did not react),phenylalanine concentration in blood during the pure cofactor treatment ([2]; diet replaced by tetrahydrobiopterine) [µmol/L],daily phenylalanine tolerance with treatment (range) ([2]; oral 7.1-10.7 mg/kg body weight daily),"daily phenylalanine tolerance with treatment (average±SD) ([2]; oral 7.1-10.7 mg/kg body weight daily, 207±51.3 days) [mg/kg body weight]","total 13CO2 recapture after treatment ([3]; 10 mg/kg body weight, 24 hours, patients which had responded to the stress test)",persons reacting to tetrahydrobiopterine that achieved oxidation rates in a normal level ([3]; 27 persons reacting to tetrahydrobiopterine),"phenylalanine oxidation rate, change [3, 5]",patients which did not respond exhibiting a mild rise in phenylalanine oxidation ([3]; after short time therapy with tetrahydrobiopterine),dose dependent undesired side effects [4]
approximately 8 hours,"C[C@H](O)[C@H](O)[C@H]1CNc2nc(N)[nH]c(=O)c2N1 [tetrahydrobiopterine, 5,6,7,8-tetrahydrobiopterine]",less than 200 μmol/l,87,slight increase,none,all ten,17 of 21,exceeded 400 μmol/l,378 ± 173,17.9-90 mg/kg body weight,61.4±27.9,rose significantly,22 of the 27,improvement,8 of 11,–
–,"C[C@H](O)[C@H](O)[C@H]1CNc2[nH]c(N)nc(=O)c2N1.Cl.Cl [BIOPTEN, sapropterinhydrochloride]",–,–,–,–,–,–,–,–,–,–,–,–,–,–,"interference with sleep, polyurea and thin stool"
